The first test addresses Protein kinase C beta type (Homo sapiens, UniProt P05771). Kind of test: Inhibition of PKCbeta2 (unknown origin). The settings on record: read-out: IC50.
Protein kinase C beta type, sequence (P05771 whole entry): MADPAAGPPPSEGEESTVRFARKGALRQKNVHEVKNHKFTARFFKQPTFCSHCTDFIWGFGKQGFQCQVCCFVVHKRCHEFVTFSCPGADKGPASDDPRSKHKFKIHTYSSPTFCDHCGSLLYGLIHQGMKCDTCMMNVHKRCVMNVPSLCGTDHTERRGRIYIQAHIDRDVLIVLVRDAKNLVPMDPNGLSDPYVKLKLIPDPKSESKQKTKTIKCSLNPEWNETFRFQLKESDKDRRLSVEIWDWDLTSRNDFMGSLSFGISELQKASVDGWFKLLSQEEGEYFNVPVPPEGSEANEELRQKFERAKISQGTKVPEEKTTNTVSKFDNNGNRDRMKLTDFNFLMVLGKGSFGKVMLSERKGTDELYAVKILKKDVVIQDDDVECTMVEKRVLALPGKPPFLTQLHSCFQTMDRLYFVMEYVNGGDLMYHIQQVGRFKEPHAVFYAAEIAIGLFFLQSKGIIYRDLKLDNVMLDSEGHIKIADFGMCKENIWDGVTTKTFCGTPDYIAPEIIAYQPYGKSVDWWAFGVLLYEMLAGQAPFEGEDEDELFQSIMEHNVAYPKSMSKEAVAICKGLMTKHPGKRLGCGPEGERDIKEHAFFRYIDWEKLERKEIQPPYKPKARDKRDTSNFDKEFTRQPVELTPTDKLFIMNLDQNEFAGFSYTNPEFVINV
`O=C1NC(=O)C(c2c3n(c4ccccc24)CC[C@@H](CO)C3)=C1Nc1ccccc1`: the IC50 is 17 nM.
Consider `CN(C)C[C@H]1CCn2c(c(C3=C(Nc4ccccc4)C(=O)NC3=O)c3ccccc32)C1`, for which the IC50 is 2 nM.
For `CCN(C)C[C@H]1Cc2c(C3=C(Nc4ccccc4)C(=O)NC3=O)c3ccccc3n2C1`, the IC50 amounted to 5 nM.
Regarding `CC(=O)NC[C@H]1Cc2c(C3=C(Nc4ccccc4)C(=O)NC3=O)c3ccccc3n2C1`, the IC50 was found to be 7.9 nM.
Take `CN(C)C[C@@H]1Cc2c(C3=C(Nc4ccccc4)C(=O)NC3=O)c3ccccc3n2C1`: the IC50 was 8 nM.
As for `CCNC[C@H]1Cc2c(C3=C(Nc4ccccc4)C(=O)NC3=O)c3ccccc3n2C1`, the IC50 was 2.4 nM.
Regarding `CNC[C@H]1Cc2c(C3=C(Nc4ccccc4)C(=O)NC3=O)c3ccccc3n2C1`, the IC50 was 2.2 nM.
With `O=C1NC(=O)C(c2c3n(c4ccccc24)C[C@H](CO)C3)=C1Nc1ccccc1`, the IC50 worked out at 14 nM.
On to `NC[C@H]1Cc2c(C3=C(Nc4ccccc4)C(=O)NC3=O)c3ccccc3n2C1`, for which the IC50 came to 1.4 nM.
In the case of `O=C1NC(=O)C(c2c3n(c4ccccc24)CC[C@H](CO)C3)=C1Nc1ccccc1`, the IC50 came to 6 nM.
Still for that read-out and setting: then `CN(C)C[C@@H]1CCn2c(c(C3=C(Nc4ccccc4)C(=O)NC3=O)c3ccccc32)C1`, with 25 nM; and `CCN(CC)C[C@H]1Cc2c(C3=C(Nc4ccccc4)C(=O)NC3=O)c3ccccc3n2C1`, with 32 nM.
As for `CN(C)C[C@@H]1CCc2c(C3=C(Nc4ccccc4)C(=O)NC3=O)c3ccccc3n2C1`, the IC50 amounted to 6 nM.

The same test, now with this note: read-out: pIC50 (converted).
On to `N=C(N)SCCCn1cc(C2=C(Nc3ccccc3)C(=O)NC2=O)c2ccccc21`, for which the IC50 is 2.04 nM.
Take `CN1CCN(CCCn2cc(C3=C(Nc4ccccc4)C(=O)NC3=O)c3ccccc32)CC1`: the IC50 was 23.4 nM.
Consider `O=C1NC(=O)C(c2cn(CCCN3CCCCC3)c3ccccc23)=C1Nc1ccccc1`, for which the IC50 was 17.4 nM.
Turning to `O=C1NC(=O)C(c2c[nH]c3ccccc23)=C1Nc1cccc(C(F)(F)F)c1`, the IC50 was 1480 nM.
In the case of `Cc1ccccc1NC1=C(c2c[nH]c3ccccc23)C(=O)NC1=O`, the IC50 is 2190 nM.
For `Cc1ccc(NC2=C(c3c[nH]c4ccccc34)C(=O)NC2=O)cc1`, the IC50 is 490 nM.
As for `COc1cccc(NC2=C(c3c[nH]c4ccccc34)C(=O)NC2=O)c1`, the IC50 was 759 nM.
Same read-out and setting: to `CN(C)CCCCCn1cc(C2=C(Nc3ccccc3)C(=O)NC2=O)c2ccccc21` belongs 41.7 nM.

The record behind these values is ChEMBL document CHEMBL3045695, “2D and 3D QSAR analyses to predict favorable substitution sites in anilino-monoindolylmaleimides acting as PKCII selective inhibitors” (Med Chem Res, 2011).
